Assay results published in patent publication US12173309B2, “Compounds for increasing genome editing efficiency” (Max-Planck-Gesellschaft zur Förderung der Wissenschaften …, priority 2017, dated 2024).

Test system: 409-B2 iCRISPR-Cas9D10A iPSCs
Experiment: Precise genome editing (PGE) efficiency with iCRISPR Cas9D10A double nicking and ssODN donors, Illumina sequencing/CRISPResso
Type: cell-based, human
Conditions: Cas9D10A; for PGE increase (mean change vs control): 20 μM NU7026, 0.01 μM TSA, 0.5 μM MLN4924, 5 μM NSC 15520, CRISPY mix = all four
Procedure: FIG. 1: Genome editing and analysis flowchart. iCRISPR 409-B2 iPSCs are treated with 2 μg/ml doxycycline at least for 2 days to induce Cas9 or Cas9D10A expression. Reverse transfection with RNAiMAX, gRNA (7.5 nM each), ssODN (10 nM) and the small molecules to be evaluated is carried out in a 96 well plate for 1 day. The amount of cells used gives ˜80% confluency. Cells are then expanded for 3 days with regular media change. After harvest follows DNA extraction, PCR amplification of targeted loci, Illumina sequencing and CRISPResso (Pinello et al. 2016) sequence analysis for amount of indels and precise genome editing.
Cells were incubated with media containing 2 μg/ml doxycycline (Clontech, 631311) 2 days prior to lipofection. Lipofection (reverse transfection) was done using the alt-CRISPR manufacturer's protocol (IDT) with a final concentration of 7.5 nM of each gRNA and 10 nM of the respective ssODN. In brief, 0.75 μl RNAiMAX (Invitrogen, 13778075) and the respective oligonucleotides were separately diluted in 25 μl OPTI-MEM (Gibco, 1985-062) each and incubated at room temperature for 5 min. Both dilutions were mixed to yield 50 μl of OPTI-MEM including RNAiMAX, gRNAs and ssODNs. The lipofection mix was incubated for 20-30 min at room temperature. During incubation cells were dissociated using EDTA for 5 min and counted using the Countess Automated Cell Counter (Invitrogen). The lipofection mix, 100 μl containing 25.000 dissociated cells in mTeSR1 supplemented with Y-27632, 2 μg/ml doxycycline and the respective small molecule(s) to be tested were throughoutly mixed and put in one well of a 96 well covered with Matrigel Matrix (Corning, 35248). Media was exchanged to regular mTeSR1 media after 24 hours.
Three days after lipofection cells were dissociated using Accutase (SIGMA, A6964), pelleted, and resuspended in 15 μl QuickExtract (Epicentre, QE0905T). Incubation at 65° C. for 10 min, 68° C. for 5 min and finally 98° C. for 5 min was performed to yield ssDNA as a PCR template. Primers for each targeted loci of CALD1, KATNA1 and SLITRK1 containing adapters for Illumina sequencing were ordered from IDT (Coralville, USA). PCR was done in a T100 Thermal Cycler (Bio-Rad) using the KAPA2G Robust PCR Kit (Peqlab, 07-KK5532-03) with supplied buffer B and 3 μl of cell extract in a total volume of 25 μl. The thermal cycling profile of the PCR was: 95° C. 3 min; 34×(95° 15 sec, 65° C. 15 sec, 72° C. 15 sec); 72° C. 60 sec. P5 and P7 Illumina adapters with sample specific indices were added in a second PCR reaction (Kircher et al. 2012) using Phusion HF MasterMix (Thermo Scientific, F-531L) and 0.3 μl of the first PCR product. The thermal cycling profile of the PCR was: 98° C. 30 sec; 25× (98° 10 sec, 58° C. 10 sec, 72° C. 20 sec); 72° C. 5 min. Amplifications were verified by size separating agarose gel electrophoresis using EX gels (Invitrogen, G4010-11). The indexed amplicons were purified using Solid Phase Reversible Immobilization (SPRI) beads (Meyer, Kircher 2010). Double-indexed libraries were sequenced on a MiSeq (Illumina) giving paired-end sequences of 2×150 bp. After base calling using Bustard (Illumina) adapters were trimmed using leeHom (Renaud et al. 2014).
CRISPresso (Pinello et al. 2016) was used to analyse sequencing data from CRISPR genome editing experiments for percentage of wildtype, targeted nucleotide substitutions (TNS), indels and mix of TNS and indels. Parameters used for analysis were ‘-w 20’, ‘--min_identity_score 70’ and ‘--ignore_substitutions’ (analysis was restricted to amplicons with a minimum of 70% similarity to the wildtype sequence and to a window of 20 bp from each gRNA; substitutions were ignored, as sequencing errors would be falsely characterized as NHEJ-events). Sequencing data from colonies after single cell seeding (FIGS. 3B and C) was further analyzed by evaluating the actual read sequences using SAMtools. Clonal colonies were differentiated from mixed colonies using sequence read proportions. […]

Compound | PGE increase (mean change vs control) (CALD1) | higher PGE frequency than without the molecules (pooled across CALD1, KATNA1, SLITRK1 (FIG. 5A), p<0.001) | PGE increase (mean change vs control) (KATNA1) | PGE increase (mean change vs control) (SLITRK1) | additional increase in PGE on addition to the mix of NU7026 and TSA (0.5 μM MLN4924, p<0.01) | effect on PGE of further addition to the mix of NU7026, TSA and MLN4924 (all loci, 5 μM NSC 15520, then 1 μM NSC 19630, 20 μM AICAR, 1 μM RS-1 (FIG. 5A))
O=c1cc(N2CCOCC2)oc2c1ccc1ccccc12 [NU7026] | 1.5 fold | 2.3 fold | 2.6 fold | 2.5 fold | – | –
NS(=O)(=O)OC[C@@H]1C[C@@H](n2ccc3c(N[C@H]4CCc5ccccc54)ncnc32)C[C@@H]1O [MLN4924, Pevonedistat] | 1.2 fold | – | 1.1 fold | 1.3 fold | 1.3 fold | –
CC(C)C1=CC23CCC4C(C)(C(=O)O)CCCC4(C)C2CC1C(C(=O)O)C3C(=O)O (stereo not drawn) [NSC 15520, Fumaropimaric acid] | 1.4 fold | – | no effect | no effect | – | slightly increased
